Experimental data: publication PMC10615177 (ACS infectious diseases, 2023)
In brackets after ≈: the same amount, converted by molar mass.

Experiments:
[1] = tested on: L. mexicana promastigotes; test: L. mexicana promastigote growth inhibition; type: cell-based, Leishmania mexicana; conditions: Leishmania mexicana, read-out: L. mexicana IC50, promastigotes
E. coli = E. coli growth inhibition; type: cell-based, Escherichia coli
M. smegmatis = M. smegmatis cell growth inhibition; type: cell-based, Mycobacterium smegmatis; conditions: Mycolicibacterium smegmatis, read-out: Ms IC50, M. smegmatis
M. tuberculosis HN878 = M. tuberculosis HN878 growth inhibition; type: cell-based, Mycobacterium tuberculosis; conditions: Mycobacterium tuberculosis; for IC50: HN878, read-out: Mtb HN878 IC50, dose-response curves; for MIC: HN878, read-out: Mtb HN878 MIC
M. tuberculosis H37Rv = M. tuberculosis H37Rv growth inhibition; type: cell-based, Mycobacterium tuberculosis; conditions: Mycobacterium tuberculosis, H37RV, read-out: Mtb H37Rv MIC
in vitro [2] = conditions: human
[3] = tested on: T. cruzi Dm28c epimastigotes; test: T. cruzi epimastigote growth inhibition; type: cell-based, Trypanosoma cruzi; conditions: Trypanosoma cruzi, read-out: T. cruzi IC50 (EPI)
in vitro [4] = conditions: human; remark: listed apart in the source
[5] = tested on: L. donovani promastigotes; test: L. donovani promastigote growth inhibition; type: cell-based, Leishmania donovani; conditions: Leishmania donovani, read-out: L. donovani IC50
[6] = tested on: Plasmodium falciparum asexual blood stages; test: P. falciparum asexual blood stage; type: cell-based; conditions: Plasmodium falciparum, read-out: PfABS IC50 (μM ± S.E.), asexual blood stages
[7] = tested on: T. cruzi Dm28c intracellular amastigotes; test: T. cruzi intracellular amastigote inhibition; type: cell-based, Trypanosoma cruzi; conditions: Trypanosoma cruzi, U2OS, read-out: T. cruzi IC50 (PAR)
[8] = tested on: T. brucei bloodstream forms; test: T. brucei bloodstream form growth inhibition; type: cell-based, Trypanosoma brucei; conditions: Trypanosoma brucei, read-out: T. brucei IC50
[9] = molecular target: M. tuberculosis MmpL3 (MtMmpL3) (Mycobacterium tuberculosis, UniProt P9WJV5); test: Surface plasmon resonance binding to MmpL3
M. tuberculosis Erdman = M. tuberculosis Erdman growth inhibition; type: cell-based, Mycobacterium tuberculosis; conditions: Mycobacterium tuberculosis, ERDMAN, read-out: Mtb Erdman MIC
Bacillus subtilis = test: B. subtilis growth inhibition; type: cell-based; conditions: Bacillus subtilis, read-out: Bs IC50

Chain of M. tuberculosis MmpL3 (MtMmpL3) (P9WJV5 whole entry): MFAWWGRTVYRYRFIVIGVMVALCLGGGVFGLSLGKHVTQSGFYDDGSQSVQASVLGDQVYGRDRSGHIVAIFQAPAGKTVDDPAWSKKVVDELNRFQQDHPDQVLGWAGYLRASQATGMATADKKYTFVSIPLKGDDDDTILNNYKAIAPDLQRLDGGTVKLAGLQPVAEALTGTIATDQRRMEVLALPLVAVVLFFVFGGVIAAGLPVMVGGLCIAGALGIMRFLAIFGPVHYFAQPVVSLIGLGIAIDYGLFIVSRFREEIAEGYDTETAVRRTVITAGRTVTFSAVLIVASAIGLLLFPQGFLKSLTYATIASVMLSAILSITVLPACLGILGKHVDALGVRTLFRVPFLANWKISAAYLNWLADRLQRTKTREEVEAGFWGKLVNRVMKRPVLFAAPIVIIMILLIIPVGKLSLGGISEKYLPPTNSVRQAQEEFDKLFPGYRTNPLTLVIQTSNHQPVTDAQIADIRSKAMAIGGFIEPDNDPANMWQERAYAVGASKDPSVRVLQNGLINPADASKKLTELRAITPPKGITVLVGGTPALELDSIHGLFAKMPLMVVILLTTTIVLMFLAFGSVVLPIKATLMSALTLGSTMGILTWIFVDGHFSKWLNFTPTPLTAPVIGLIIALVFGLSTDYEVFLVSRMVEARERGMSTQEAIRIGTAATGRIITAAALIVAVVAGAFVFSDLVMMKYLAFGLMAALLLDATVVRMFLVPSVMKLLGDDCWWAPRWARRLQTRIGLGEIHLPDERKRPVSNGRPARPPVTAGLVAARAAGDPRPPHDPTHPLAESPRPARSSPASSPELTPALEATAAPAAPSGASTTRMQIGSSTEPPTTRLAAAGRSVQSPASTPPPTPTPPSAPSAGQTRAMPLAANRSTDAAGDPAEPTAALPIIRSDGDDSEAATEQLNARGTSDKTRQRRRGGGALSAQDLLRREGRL

SMILES	IC50 [1]	Ec IC50 (E. coli)	IC50 (M. smegmatis)	IC50 (M. tuberculosis HN878)	MIC (M. tuberculosis HN878)	MIC (M. tuberculosis H37Rv)	viability at 20 µM (in vitro [2])	IC50 [3]	CC50 (in vitro [4])	IC50 [5]	IC50 [6]	IC50 [7]	IC50 [8]	MIC (M. tuberculosis Erdman)	IC50 (Bacillus subtilis)	also measured
CCCC1(NCC(=O)NCC=C(C)CCC=C(C)C)C2CC3CC(C2)CC1C3 (stereo not drawn) [Compound 14d, N-(3,7-dimethylocta-2,6-dien-1-yl)-2-((2-propyladamantan-2-yl)amino)acetamide]	0.73 ± 0.2 µM	No inhibition	49 ± 5 µM	> 25 µM	25 µM (≈ 9.67 µg/mL)	32 µM (≈ 12.4 µg/mL)	100%	14 ± 5 µM	9.1 ± 0.4 µM	8.4 ± 2 µM	5.27 ± 0.41 µM	2.8 ± 0.3 µM	2.3 ± 0.1 µM	32 µM (≈ 12.4 µg/mL)	–	koff [9]: 0.754 s⁻¹; kon [9]: 3000 M⁻¹ s⁻¹; Kd ([9]; 1:1 model, 1:1 binding model, from ratio of rate constants): 252 µM; Kd ([9]; 2-state, two-state model, from rate constants): 267 µM; ka1 ([9]; two-state model): 3277 M⁻¹ s⁻¹; ka2 ([9]; two-state model): 0.005907 s⁻¹; kd1 ([9]; two-state model): 1.04 s⁻¹; kd2 ([9]; two-state model): 0.03103 s⁻¹
CC(C)=CCCC(C)=CCNC(=O)CNC(C)(C)C12CC3CC(CC(C3)C1)C2 [Compound 15, 2-((2-(Adamantan-1-yl)propan-2-yl)amino)-N-(3,7-dimethylocta-2,6-dien-1-yl)acetamide]	5 ± 0.1 µM	No inhibition	31 ± 3 µM	17 ± 6 µM	12.5 µM (≈ 4.83 µg/mL)	38 µM (≈ 14.7 µg/mL)	76%	15 ± 3 µM	7.1 ± 0.5 µM	12 ± 8 µM	5.44 ± 0.32 µM	2.6 ± 0.1 µM	5.9 ± 0.1 µM	38 µM (≈ 14.7 µg/mL)	–	viability at 2 µM (in vitro [2]): 91%
CCCCC1(NC(=O)CNCC=C(C)CCC=C(C)C)C2CC3CC(C2)CC1C3 (stereo not drawn) [Compound 7e, 2-((3,7-Dimethylocta-2,6-dien-1-yl)amino)-N-(2-butyladamantan-2-yl)acetamide]	–	No inhibition	17 µM	13 ± 0.3 µM	12.5 µM (≈ 5.01 µg/mL)	15 µM (≈ 6.01 µg/mL)	–	48 ± 0.07 µM	15 ± 0.5 µM	25 ± 14 µM	–	8.8 ± 1.3 µM	3 ± 0.2 µM	15 µM (≈ 6.01 µg/mL)	2.8 µM	–
CCC1(NC(=O)CNCC=C(C)CCC=C(C)C)C2CC3CC(C2)CC1C3 (stereo not drawn) [Compound 7c, 2-((3,7-Dimethylocta-2,6-dien-1-yl)amino)-N-(2-ethyladamantan-2-yl)acetamide]	–	No inhibition	7.7 µM	6.6 ± 0.2 µM	6.25 µM (≈ 2.33 µg/mL)	16 µM (≈ 5.96 µg/mL)	–	14 ± 0.04 µM	7.5 ± 0.6 µM	44 ± 11 µM	–	3.2 ± 0.2 µM	3.9 ± 0.3 µM	16 µM (≈ 5.96 µg/mL)	1.9 µM	–
CC(C)=CCCC(C)=CCNCC(=O)NC1(Cc2ccccc2)C2CC3CC(C2)CC1C3 (stereo not drawn) [Compound 7g, 2-((3,7-Dimethylocta-2,6-dien-1-yl)amino)-N-(2-benzyladamantan-2-yl)acetamide]	–	No inhibition	17 µM	–	–	29 µM (≈ 12.6 µg/mL)	–	17 ± 4 µM	7 ± 0.2 µM	27 ± 0.8 µM	–	2.9 ± 0.3 µM	5.6 ± 1 µM	29 µM (≈ 12.6 µg/mL)	2.3 µM	–
CC(C)=CCCC(C)=CCNCC(=O)NC1(c2ccccc2)C2CC3CC(C2)CC1C3 (stereo not drawn) [Compound 7h, 2-((3,7-Dimethylocta-2,6-dien-1-yl)amino)-N-(2-phenyladamantan-2-yl)acetamide]	–	No inhibition	26 µM	–	–	38 µM (≈ 16 µg/mL)	–	18 ± 2 µM	7 ± 0.4 µM	26 ± 28 µM	–	3.4 ± 0.2 µM	4.1 ± 0.6 µM	38 µM (≈ 16 µg/mL)	4.5 µM	–
